“Also recorded” adds a separate entry of the source.

In one data set the test system is 3T3 cells. The experiment in a line: Fluorescence cell labelling, confocal microscopy. It is filed as cell-based, mouse. The conditions noted are these: 500 μg/ml for 24 hours; DAPI, FITC, Cy3 channels.
Data set [1] in a line: Halide fluorescence quenching (Stern-Volmer). It is filed as physicochemical. How it is done: Absorbance Spectra were recorded on Tecan Infinite M200 Pro UV-vis spectroscopy, and fluorescence spectra were recorded on Horiba FluoroMax-4 fluorospectroscopy at concentrations below 0.1 O.D. unless otherwise indicated. Quantum Yields were measured on the Quantum φ Integrating Sphere accessory to the FluoroMax-4, while lifetime measurements were determined through the Time-Correlation Single Photon Counting (TCSPC) accessory to the FluroMax-4. TCSPC was utilized in conjunction with NanoLED pulsed diode light source with peak excitation wavelength at 352 nm and at 10,000 counts peak preset. Emission was collected at the fluorescence λmax, unless otherwise indicated. For all pH-dependence experiments, sample pH was adjusted with sulfuric acid or sodium hydroxide. For all chloride-dependent quenching experiments, magnesium chloride hexahydrate (Sigma Aldrich) was used.
When a fluorophore of [F] absorbs light energy, excitation raises a sub-population of [F] to the excited state, [F*], which then rapidly lose energy along radiative relaxation (kr) or non-radiative relaxation (knr) according to equation 7. If a quencher forms a complex with the excited fluorophore, an extra non-radiative component, kq, is added to equation 7 to account for the additional relaxation pathway that is a function of quencher concentration and its association constant.
[formula] Thus the quenching of fluorescence can be quantitatively analyzed by comparing the affected lifetimes. The Stern-Volmer (SV) relationship is used to determine kq, the bimolecular quenching rate constant for the diffusion coefficients of the fluorophore and quencher, by deriving a plot of τ0/τ versus [Q]:
[formula] Thus the linear slope of the SV plot, KSV, measures the efficiency of the quencher. Since sulfuric acid was used to study proton-induced quenching, the pH value was a better indicator of [H^+] due to incomplete dissociation of sulfuric acid at high concentrations. In the case of multiple quenchers, as will be discussed in this paper, equation 7 must include additional kq terms that result in modified form of equation 12 below:
[formula] If the two quenchers are act independently, the quencher of known quenching rate and concentration can be combined into the Y-intercept term in order to determine the quenching rate of the second, unknown quencher. […]
To translate halide quenching into quantitative sensing applications, a modified Stern-Volmer equation (Equation 14) was used to linearize the effects of two quenchers, protons and the halide being studied, on the fluorescence of CA-Cysteine. […]
Since the measured sample fluorescence is quenched by both protons and halides, the unquenched fluorescence, Io, was defined as the fluorescence of the neutral state CA-Cysteine in the absence of additional proton or halide quenchers. As mentioned above, the effects of protolytic equilibria stabilize around pH 2.2, where CA-Cysteine undergoes 99% conversion from the dianion state and is marked by constant fluorescence intensities (FIG. 13). […] Thus we chose the fluorescence intensity at pH 2.2 (in the absence of halides) as the unquenched reference signal, Io. IH,Cl in equation 23 is the sample fluorescence at the pH and halide concentration indicated. […]

Data set [2] in a line: Acid-base titration with NaOH (pKa, protolytic states). It is filed as physicochemical. As for the experimental part: The pKa values of CA-Cys were determined through acid-base titration with NaOH. Titration curves support the presence of two carboxyl groups with close pKa values for two reasons. The molar mass of CA-Cys, 241 g/mol as determined by LC-ESI-MS, matches the molar mass value of 245.6 g/mol determined by titration only when assuming a diprotic acid. Moreover, the long buffered region of the titration curve supports the presence of two carboxyl groups with close pKas that are overlapping the first inflection point, estimated to be at ½ NaOH volume of the end point.
Based on the pKa values determined from 2.4, a theoretical protolytic equilibria was established based on equations 1-3 below: […]

Consider `O=C(O)c1cc2n(c(=O)c1)C(C(=O)O)CS2` (stereo not shown) [CA-Cys], for which the “fluorescence from cells after uptake” value with 3T3 cells was “Strong fluorescence was observed; also recorded: strong DAPI-channel fluorescence”. For the same compound, the “fluorescence quenching by magnesium sulfate and sodium sulfate” value in data set [1] is reported as “did not quench fluorescence under any conditions”. Further, the “fluorescence quenching by bromide and iodide” value in data set [1] (compared with chloride) is “quenched by bromide and iodide at even greater affinities”. Besides, the “fluorescence quenching by magnesium chloride” value in data set [1] (pH 8.2) was “no significant quenching”; in data set [1] (strongly acidic conditions (pH 2.4)) it was “quenched”. For the same compound, in data set [2], the “pKa1 (3-carboxyl group)” value is 2.345. In addition, in data set [2], the “pKa2 (7-carboxyl group)” value was determined as 3.41. Moreover, the “Exists at pH” value in data set [2] (Anion protolytic state) is recorded as 2.35~3.41; in data set [2] (Dianion protolytic state), above 3.41; in data set [2] (Neutral protolytic state) it was below 2.35.

Values taken from US10648917B2, “Luminescent compositions and applications thereof” (THE PENN STATE RESEARCH FOUNDATION, priority 2015, dated 2020).
